From patent publication US12139520B2 (priority 2020, dated 2024) come the findings set out here.

Bridge positions count the residues as written; N and C are the ends. Square brackets hold non-standard residues; d marks the D form. Peptide text beside a SMILES is read from it. Hyp = O=C(O)[C@@H]1C[C@@H](O)CN1

A short description of this data set: Physical stability of peptide analogues (Thioflavin T fibrillation). The class given is physicochemical. Conditions: maximum ThT signal normalized between hAMY maximum and buffer background; 40° C., shaking, four days; pH 7 per table title. The method, then:
General Protocols for Determination of Physical Stability of Peptide Analogues
Peptides were dissolved in buffers (50 mM sodium acetate at pH 4 or 50 mM sodium phosphate at pH 7) and incubated for one hour. The samples were then divided into two replicates of 80 μl in a black 384 well plate (μ-clear, Greiner Bio-One) and mixed with Thioflavin T (ThT) to a final concentration of 4 μM. The plate was sealed and placed in a plate reader (CLARIOstar, BMG) where the temperature was set at 40° C. during the course of the experiment. The samples were further stressed by shaking the plate at 700 rpm (linear) for five minutes before every measurement. The fluorescence was measured every 10 min for four days by exciting the ThT at 450 nm and measuring the emission at 480 nm. For each peptide, the ThT signal over time was smoothened using Local Polynomial Regression fitting (LOESS) as implemented in the statistical programming environment R. For the smoothened data, the maximum ThT signal was normalized in percent between the maximum ThT signal for hAMY and the buffer background.
`CC[C@H](C)[C@H](NC(=O)[C@H](CCC(N)=O)NC(=O)[C@H](Cc1c[nH]cn1)NC(=O)[C@H](C)NC(=O)[C@H](CC(C)C)NC(=O)[C@H](CCCNC(=N)N)NC(=O)[C@H](CCC(N)=O)NC(=O)[C@@H](NC(=O)[C@@H](NC(=O)[C@@H]1CSSC[C@H](NC(=O)CN)C(=O)N[C@@H](CCCNC(=N)N)C(=O)N[C@@H]([C@@H](C)O)C(=O)NCC(=O)N[C@@H]([C@@H](C)O)C(=O)N1)[C@@H](C)O)C(C)C)C(=O)N[C@@H](Cc1ccc(O)cc1)C(=O)N[C@@H](CCC(N)=O)C(=O)N[C@@H](Cc1ccccc1)C(=O)N[C@H](C(=O)N[C@@H](CC(=O)O)C(=O)N[C@@H](CCCCN)C(=O)N[C@@H](CC(=O)O)C(=O)N[C@@H](CCCCN)C(=O)N[C@@H](CC(=O)O)C(=O)N[C@@H](CC(N)=O)C(=O)N[C@H](C(=O)N[C@@H](C)C(=O)N1CCC[C@H]1C(=O)N[C@@H](CCCNC(=N)N)C(=O)N[C@H](C(=O)N[C@@H](CCCCN)C(=O)N[C@H](C(=O)N[C@@H](CO)C(=O)N1CCC[C@H]1C(=O)N[C@@H](CC(N)=O)C(=O)NCC(=O)N1C[C@H](O)C[C@H]1C(N)=O)[C@@H](C)CC)[C@@H](C)O)C(C)C)[C@@H](C)O` [compound 197] (H-GCRTGTCTVQRLAHQIYQFTDKDKDNVAPRTKISPNG[Hyp]-NH2; disulfide 2-7; N-terminus assumed): the “Max ThT signal (%)” value amounted to 5.600%.

Turning to `CC[C@H](C)[C@@H]1NC(=O)[C@H](CCCNC(=N)N)NC(=O)[C@@H](NC(=O)CN)CSSC[C@@H](C(=O)N[C@H](C(=O)N[C@H](C(=O)N[C@@H](CCC(N)=O)C(=O)N[C@@H](CCCNC(=N)N)C(=O)N[C@@H](CC(C)C)C(=O)N[C@@H](C)C(=O)N[C@@H](Cc2c[nH]cn2)C(=O)N[C@@H](CCC(N)=O)C(=O)N[C@H](C(=O)N[C@@H](Cc2ccc(O)cc2)C(=O)N[C@@H](CCC(N)=O)C(=O)N[C@@H](Cc2ccccc2)C(=O)N[C@H](C(=O)N[C@@H](CC(N)=O)C(=O)N[C@@H](CCCCN)C(=O)N[C@@H](CC(=O)O)C(=O)N[C@@H](CCCCN)C(=O)N[C@@H](CC(=O)O)C(=O)N[C@@H](CC(N)=O)C(=O)N[C@H](C(=O)N[C@@H](C)C(=O)N2CCC[C@H]2C(=O)N[C@@H](CCCNC(=N)N)C(=O)N[C@@H](CO)C(=O)N[C@@H](CCCCN)C(=O)N[C@H](C(=O)N[C@@H](CO)C(=O)N2CCC[C@H]2C(=O)N[C@@H](CCC(N)=O)C(=O)N[C@H](C(=O)N2C[C@H](O)C[C@H]2C(N)=O)[C@@H](C)O)[C@@H](C)CC)C(C)C)[C@@H](C)O)[C@@H](C)CC)C(C)C)[C@@H](C)O)NC(=O)[C@H]([C@@H](C)O)NC(=O)CNC1=O` [compound 198] (H-GCRIGTCTVQRLAHQIYQFTNKDKDNVAPRSKISPQT[Hyp]-NH2; disulfide 2-7; N-terminus assumed), the “Max ThT signal (%)” value was 4.200%.

Take `CC[C@H](C)[C@H](NC(=O)[C@H](CCC(N)=O)NC(=O)[C@H](Cc1c[nH]cn1)NC(=O)[C@H](C)NC(=O)[C@H](CC(C)C)NC(=O)[C@H](CCCNC(=N)N)NC(=O)[C@H](CCC(N)=O)NC(=O)[C@@H](NC(=O)[C@@H](NC(=O)[C@@H]1CSSC[C@H](NC(=O)CN)C(=O)N[C@@H](CCCNC(=N)N)C(=O)N[C@@H]([C@@H](C)O)C(=O)NCC(=O)N[C@@H]([C@@H](C)O)C(=O)N1)[C@@H](C)O)C(C)C)C(=O)N[C@@H](Cc1ccc(O)cc1)C(=O)N[C@@H](CCC(N)=O)C(=O)N[C@@H](Cc1ccccc1)C(=O)N[C@H](C(=O)N[C@@H](CC(=O)O)C(=O)N[C@@H](CCCCN)C(=O)N[C@@H](CC(=O)O)C(=O)N[C@@H](CCCCN)C(=O)N[C@@H](CC(=O)O)C(=O)N[C@@H](CC(N)=O)C(=O)N[C@H](C(=O)N[C@@H](C)C(=O)N1CCC[C@H]1C(=O)N[C@@H](CCCNC(=N)N)C(=O)N[C@H](C(=O)N[C@@H](CC(N)=O)C(=O)N[C@H](C(=O)N[C@@H](CO)C(=O)N1CCC[C@H]1C(=O)N[C@@H](CCC(N)=O)C(=O)NCC(=O)N[C@@H](Cc1ccc(O)cc1)C(N)=O)[C@@H](C)CC)[C@@H](C)O)C(C)C)[C@@H](C)O` [compound 199] (H-GCRTGTCTVQRLAHQIYQFTDKDKDNVAPRTNISPQGY-NH2; disulfide 2-7; N-terminus assumed): the “Max ThT signal (%)” value came to 8.900%.

Consider `CC[C@H](C)[C@H](NC(=O)[C@H](CCC(N)=O)NC(=O)[C@H](Cc1c[nH]cn1)NC(=O)[C@H](C)NC(=O)[C@H](CC(C)C)NC(=O)[C@H](CCCNC(=N)N)NC(=O)[C@H](CCC(N)=O)NC(=O)[C@@H](NC(=O)[C@@H](NC(=O)[C@@H]1CSSC[C@H](NC(=O)CN)C(=O)N[C@@H](CCCNC(=N)N)C(=O)N[C@@H]([C@@H](C)O)C(=O)NCC(=O)N[C@@H]([C@@H](C)O)C(=O)N1)[C@@H](C)O)C(C)C)C(=O)N[C@@H](Cc1ccc(O)cc1)C(=O)N[C@@H](CCC(N)=O)C(=O)N[C@@H](Cc1ccccc1)C(=O)N[C@H](C(=O)N[C@@H](CC(=O)O)C(=O)N[C@@H](CCCCN)C(=O)N[C@@H](CC(=O)O)C(=O)N[C@@H](CCCCN)C(=O)N[C@@H](CC(=O)O)C(=O)N[C@@H](CC(N)=O)C(=O)N[C@H](C(=O)N[C@@H](C)C(=O)N1CCC[C@H]1C(=O)N[C@@H](CCCNC(=N)N)C(=O)N[C@@H](CO)C(=O)N[C@@H](CCCCN)C(=O)N[C@H](C(=O)N[C@@H](CO)C(=O)N1CCC[C@H]1C(=O)N[C@@H](CC(N)=O)C(=O)NCC(=O)N1C[C@H](O)C[C@H]1C(N)=O)C(C)C)C(C)C)[C@@H](C)O` [compound 204] (H-GCRTGTCTVQRLAHQIYQFTDKDKDNVAPRSKVSPNG[Hyp]-NH2; disulfide 2-7; N-terminus assumed), for which the “Max ThT signal (%)” value is 2.200%.

As for `CC[C@H](C)[C@H](NC(=O)[C@H](CCC(N)=O)NC(=O)[C@H](Cc1c[nH]cn1)NC(=O)[C@H](C)NC(=O)[C@H](CC(C)C)NC(=O)[C@H](CCCNC(=N)N)NC(=O)[C@H](CCC(N)=O)NC(=O)[C@@H](NC(=O)[C@@H](NC(=O)[C@@H]1CSSC[C@H](NC(=O)CN)C(=O)N[C@@H](CCCNC(=N)N)C(=O)N[C@@H]([C@@H](C)O)C(=O)NCC(=O)N[C@@H]([C@@H](C)O)C(=O)N1)[C@@H](C)O)C(C)C)C(=O)N[C@@H](Cc1ccc(O)cc1)C(=O)N[C@@H](CCC(N)=O)C(=O)N[C@@H](Cc1ccccc1)C(=O)N[C@H](C(=O)N[C@@H](CC(=O)O)C(=O)N[C@@H](CCCCN)C(=O)N[C@@H](Cc1ccccc1)C(=O)N[C@@H](CCCCN)C(=O)N[C@@H](CC(=O)O)C(=O)N[C@@H](CC(N)=O)C(=O)N[C@H](C(=O)N[C@@H](C)C(=O)N1CCC[C@H]1C(=O)N[C@@H](CCCNC(=N)N)C(=O)N[C@@H](CO)C(=O)N[C@@H](CCCCN)C(=O)N[C@H](C(=O)N[C@@H](CO)C(=O)N1CCC[C@H]1C(=O)N[C@@H](CCC(N)=O)C(=O)N[C@@H](Cc1ccccc1)C(=O)N1C[C@H](O)C[C@H]1C(N)=O)[C@@H](C)CC)C(C)C)[C@@H](C)O` [compound 211] (H-GCRTGTCTVQRLAHQIYQFTDKFKDNVAPRSKISPQF[Hyp]-NH2; disulfide 2-7; N-terminus assumed), the “Max ThT signal (%)” value was 5.200%.

As to `CC[C@H](C)[C@H](NC(=O)[C@H](CCC(N)=O)NC(=O)[C@H](Cc1c[nH]cn1)NC(=O)[C@H](C)NC(=O)[C@H](CC(C)C)NC(=O)[C@H](CCCNC(=N)N)NC(=O)[C@H](CCC(N)=O)NC(=O)[C@@H](NC(=O)[C@@H](NC(=O)[C@@H]1CSSC[C@H](NC(=O)CN)C(=O)N[C@@H](CCCNC(=N)N)C(=O)N[C@@H]([C@@H](C)O)C(=O)NCC(=O)N[C@@H]([C@@H](C)O)C(=O)N1)[C@@H](C)O)C(C)C)C(=O)N[C@@H](Cc1c[nH]cn1)C(=O)N[C@@H](CCC(N)=O)C(=O)N[C@@H](Cc1ccccc1)C(=O)N[C@H](C(=O)N[C@@H](CC(N)=O)C(=O)N[C@@H](CCCCN)C(=O)N[C@@H](CC(=O)O)C(=O)N[C@@H](CCCCN)C(=O)N[C@@H](CC(=O)O)C(=O)N[C@@H](CC(N)=O)C(=O)N[C@H](C(=O)N[C@@H](C)C(=O)N1CCC[C@H]1C(=O)N[C@@H](CCCNC(=N)N)C(=O)N[C@@H](CO)C(=O)N[C@@H](CCCCN)C(=O)N[C@H](C(=O)N[C@@H](CO)C(=O)N1CCC[C@H]1C(=O)N[C@@H](CCC(N)=O)C(=O)N[C@H](C(=O)N1C[C@H](O)C[C@H]1C(N)=O)[C@@H](C)O)[C@@H](C)CC)C(C)C)[C@@H](C)O` [compound 227] (H-GCRTGTCTVQRLAHQIHQFTNKDKDNVAPRSKISPQT[Hyp]-NH2; disulfide 2-7; N-terminus assumed), the “Max ThT signal (%)” value was 8.500%.

For the compound `CC[C@H](C)[C@H](NC(=O)[C@H](CCC(N)=O)NC(=O)[C@H](Cc1c[nH]cn1)NC(=O)[C@H](C)NC(=O)[C@H](CC(C)C)NC(=O)[C@H](CCCNC(=N)N)NC(=O)[C@H](CCC(N)=O)NC(=O)[C@@H](NC(=O)[C@@H](NC(=O)[C@@H]1CSSC[C@H](NC(=O)CN)C(=O)N[C@@H](CCCNC(=N)N)C(=O)N[C@@H]([C@@H](C)O)C(=O)NCC(=O)N[C@@H]([C@@H](C)O)C(=O)N1)[C@@H](C)O)C(C)C)C(=O)N[C@@H](Cc1ccc(O)cc1)C(=O)N[C@@H](CCC(N)=O)C(=O)N[C@@H](Cc1ccccc1)C(=O)N[C@H](C(=O)N[C@@H](CC(=O)O)C(=O)N[C@@H](CCCCN)C(=O)N[C@@H](Cc1ccccc1)C(=O)N[C@@H](CCCCN)C(=O)N[C@@H](CC(=O)O)C(=O)N[C@@H](CC(N)=O)C(=O)N[C@H](C(=O)N[C@@H](C)C(=O)N1CCC[C@H]1C(=O)N[C@@H](CCCNC(=N)N)C(=O)N[C@@H](CO)C(=O)N[C@@H](CCCCN)C(=O)N[C@H](C(=O)N[C@@H](CO)C(=O)N1CCC[C@H]1C(=O)N[C@@H](CCC(N)=O)C(=O)N[C@H](C(=O)N1CCC[C@H]1C(N)=O)[C@@H](C)O)[C@@H](C)CC)C(C)C)[C@@H](C)O` [compound 235] (H-GCRTGTCTVQRLAHQIYQFTDKFKDNVAPRSKISPQTP-NH2; disulfide 2-7; N-terminus assumed), the “Max ThT signal (%)” value is 0.800%.
